Measured values from patent publication US20090232909A1, “Method for determining physiological effects of hemoglobin” (priority 1999, published 2009).
“Also recorded” adds a separate entry of the source.

Biological target: T1, AE1 (Homo sapiens, UniProt P02730)
T1 construct: immunoprecipitated AE1 with monoclonal antibodies, and measured NO in immunoprecipitates (IPs); endogenous in cells; host or cells: RBCs (fresh venous blood) and IOVs from outdated RBCs; TX-100 or NP-40 extracts
T1 sequence (P02730 1-911): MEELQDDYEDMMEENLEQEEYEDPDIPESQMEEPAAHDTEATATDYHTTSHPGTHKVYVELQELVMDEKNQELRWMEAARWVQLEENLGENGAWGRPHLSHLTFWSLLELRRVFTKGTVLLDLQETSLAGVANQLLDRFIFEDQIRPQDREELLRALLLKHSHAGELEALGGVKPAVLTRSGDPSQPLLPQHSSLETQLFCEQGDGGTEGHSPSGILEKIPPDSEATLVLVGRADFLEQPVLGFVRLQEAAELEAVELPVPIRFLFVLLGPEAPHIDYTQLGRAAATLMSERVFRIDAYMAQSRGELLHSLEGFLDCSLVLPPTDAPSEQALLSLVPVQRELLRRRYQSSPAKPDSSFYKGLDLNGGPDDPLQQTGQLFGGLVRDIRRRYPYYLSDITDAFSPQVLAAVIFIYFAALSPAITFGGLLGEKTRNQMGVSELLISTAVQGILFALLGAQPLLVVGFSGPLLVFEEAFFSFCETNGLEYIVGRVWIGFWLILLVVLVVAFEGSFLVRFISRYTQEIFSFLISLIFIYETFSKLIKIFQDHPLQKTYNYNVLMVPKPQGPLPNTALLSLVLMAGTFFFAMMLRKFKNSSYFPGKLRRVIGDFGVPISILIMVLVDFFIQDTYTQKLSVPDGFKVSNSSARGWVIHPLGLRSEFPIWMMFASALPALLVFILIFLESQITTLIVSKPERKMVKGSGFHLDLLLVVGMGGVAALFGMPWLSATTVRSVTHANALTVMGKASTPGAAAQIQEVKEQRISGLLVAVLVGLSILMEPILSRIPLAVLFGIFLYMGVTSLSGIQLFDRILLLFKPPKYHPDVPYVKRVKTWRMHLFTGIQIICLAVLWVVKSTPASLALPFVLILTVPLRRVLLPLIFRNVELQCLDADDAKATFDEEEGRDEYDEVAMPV
Assay: SNO content of AE1 immunoprecipitates from IOV and RBC membrane extracts
Type: biochemical
Conditions: RBCs treated with 0.1 mM DIDS before NO
Description: Immunoprecipitation was carried out by incubation of TX-100 or NP-40 extracts with antibodies followed by protein G-Sepharose. We employed two monoclonal anti-AE1 antibodies (Sigma, clone BIII-136, and kindly provided by M. Telen) that recognized epitopes in the cytoplasmic domain and that produced indistinguishable results. Immune complexes were eluted with 10 mM glycine at pH 3.0, and eluates were adjusted immediately to pH 7.4 followed by photolysis/chemiluminescence. Efficiency of immunoprecipitation was confirmed by Western blotting. Binding of SNO-Hb to IOVs was assessed in 10 mM MOPS buffer, pH 7, at room temperature and 21% O2. Incubation was for 15 mins before IOVs were solubilized in 1% TX-100, and heme content was assessed spectrophotometrically. When employed, RBCs were treated for 60 mins with DIDS (0.1 mM; calculated 10-fold molar excess over AE1), then washed thoroughly to remove unreacted DIDS. RBCs were then exposed to NO (as above) or used to prepare DIDS-modified IOVs (as above).
To assess this mechanism, we incubated IOVs with free or Sepharose-bound NO-Hb and also treated RBCs with NO(NO:heme ratio of 1:250), prepared TX-100 or NP-40 extracts of IOVs and RBC membranes, immunoprecipitated AE1 with monoclonal antibodies, and measured NO in immunoprecipitates (IPs). […] SNO was detected at negligible levels in IPs generated with a non-specific mouse IgG (FIGS. 8A-8C). […]

O=S(=O)(O)c1cc(N=C=S)ccc1C=Cc1ccc(N=C=S)cc1S(=O)(=O)O [DIDS, 4,4′-diisothiocyanatostilbene-2,2′-disulfonic acid]
effect on SNO content of AE1 IPs from RBC membrane extracts: reduced substantially; also recorded: greatly reduced
